This assay deals with T1, recombinant human Flag-tagged PARP7 (amino acids 456-657) (Homo sapiens, UniProt Q7Z3E1).
T1 construct: recombinant human Flag-tagged PARP7 (amino acids 456-657)
T1 sequence (Q7Z3E1 456-657): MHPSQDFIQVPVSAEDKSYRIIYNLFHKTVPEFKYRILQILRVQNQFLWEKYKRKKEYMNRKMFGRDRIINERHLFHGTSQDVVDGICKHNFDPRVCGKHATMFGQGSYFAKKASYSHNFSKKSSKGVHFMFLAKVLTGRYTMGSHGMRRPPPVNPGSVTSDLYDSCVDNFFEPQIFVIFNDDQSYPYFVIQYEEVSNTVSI
Nature of the assay: PARP7 biochemical DELFIA assay (auto-MARylation). The settings on record: DELFIA readout, IC50 class. In outline:
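Flag-PARP7 (456-657), 12.5-37.5 nM stock, captured on anti-FLAG wells, preincubated 30 min with compound, then auto-MARylated with biotin-NAD+ (15 μM stock) in HEPES pH 7.5/NaCl/DTT/BSA/Tween for 2-3 h at room temperature. NAD+ quench; Eu-streptavidin DELFIA read, Ex337/Em620 nm.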

pIC50: −log10 of the molar value.

Regarding `CC(C)c1cn(CCOCCC(=O)N2CCN(c3ncc(C(F)(F)F)cn3)CC2)c2cn[nH]c(=O)c12` [Compound 150], the pIC50 (usually the negative decadic logarithm of the IC50, by convention in mol/L) was no less than 7.00. `Cc1cn(C(C)COCCC(=O)N2CCN(c3ncc(C(F)(F)F)cn3)CC2)c2cn[nH]c(=O)c12` (stereo not drawn) [Compound 152]: the pIC50 was no less than 7.00.

Take `O=C(CCOCCn1nc(C(F)(F)F)c2c(=O)[nH]ncc21)N1CCN(c2ncc(C(F)(F)F)cn2)CC1` [Compound 153, 1-(2-(3-oxo-3-(4-(5-(trifluoromethyl)pyrimidin-2-yl)piperazin-1-yl)propoxy)ethyl)-3-(trifluoromethyl)-1,5-dihydro-4H-pyrazolo[3,4-d]pyridazin-4-one]: the pIC50 was no less than 7.00. In the case of `CC(C)c1nn(CCOCCC(=O)N2CCN(c3ncc(C(F)(F)F)cn3)CC2)c2cn[nH]c(=O)c12` [Compound 154], the pIC50 is no less than 7.00.

Consider `CC(COCCn1ncc2c(=O)[nH]ncc21)C(=O)N1CCN(c2ncc(C(F)(F)F)cn2)CC1` (stereo not drawn) [Compound 155], for which the negative logarithm of the IC50 (pIC50) is no less than 7.00. Take `CC(COCCn1ncc2c(=O)[nH]ncc21)C(=O)N1CCN(c2ncc(C(F)(F)F)cn2)CC1` (stereo not drawn) [Compound 156]: the pIC50 was 6.00 to 7.00. Turning to `O=C(CCOCCN1C(=O)CCc2c1cn[nH]c2=O)N1CCN(c2ncc(C(F)(F)F)cn2)CC1` [Compound 157], the pIC50 is no less than 7.00. The result for `O=C(CCOCCc1ccc(F)c2c(=O)[nH]ncc12)N1CCN(c2ncc(C(F)(F)F)cn2)CC1` [Compound 158] reads no less than 7.00; that for `Nc1nc(N2CCN(C(=O)CCOCCc3cccc4c(=O)[nH]ncc34)CC2)ncc1C(F)(F)F` [Compound 159], 6.00 to 7.00. Take `CC1CN(c2ncc(C(F)(F)F)cn2)CCN1C(=O)CCOCCn1nc(C(F)(F)F)c2c(=O)[nH]ncc21` (stereo not drawn) [Compound 160]: the pIC50 was no less than 7.00. `CC1CN(c2ncc(C(F)(F)F)cn2)CCN1C(=O)CCOCCn1nc(C(F)(F)F)c2c(=O)[nH]ncc21` (stereo not drawn) [Compound 161]: the pIC50 is no less than 7.00. On to `CC(COCCC(=O)N1CCN(c2ncc(C(F)(F)F)cn2)CC1)c1cc(Cl)cc2c(=O)[nH]ncc12` (stereo not drawn) [Compound 162], for which the negative-log IC50 (pIC50) is 6.00 to 7.00. As to `CC(COCCC(=O)N1CCN(c2ncc(C(F)(F)F)cn2)CC1)c1cc(Cl)cc2c(=O)[nH]ncc12` (stereo not drawn) [Compound 163], the pIC50 was no less than 7.00. Next, `CCc1cn(CCOCCC(=O)N2CCN(c3ncc(C(F)(F)F)cn3)CC2)c2cn[nH]c(=O)c12` [Compound 164]: no less than 7.00; `O=C(OCCCCc1cccc2c(=O)[nH]ncc12)N1CCN(c2ncc(C(F)(F)F)cn2)CC1` [Compound 165]: no less than 7.00. As for `CN(CCCC(=O)N1CCN(c2ncc(C(F)(F)F)cn2)CC1)Cc1cccc2c(=O)[nH]ncc12` [Compound 167], the pIC50 was 6.00 to 7.00. Turning to `CC(COCCC(=O)N1CCN(c2ncc(C(F)(F)F)cn2)CC1)n1ncc2c(=O)[nH]ncc21` (stereo not drawn) [Compound 168], the pIC50 was no less than 7.00. `CC(COCCC(=O)N1CCN(c2ncc(C(F)(F)F)cn2)CC1)n1ncc2c(=O)[nH]ncc21` (stereo not drawn) [Compound 169]: the pIC50 was 6.00 to 7.00. Next, `Cc1nc2c(=O)[nH]ncc2n1CCOCCC(=O)N1CCN(c2ncc(C(F)(F)F)cn2)CC1` [Compound 170]: 6.00 to 7.00; `O=C(CCOCCn1nc(C(F)(F)F)c2c(=O)[nH]ncc21)N1CCN(c2nc3cc(Cl)ccc3o2)CC1` [Compound 171]: no less than 7.00. Turning to `O=C(CCOCCc1cccc2c(=O)[nH]ncc12)N1CCN(c2nc3cc(Cl)ccc3o2)CC1` [Compound 172], the pIC50 was no less than 7.00.

As to `CC1(C)CN(C(=O)CCOCCn2nc(C(F)(F)F)c3c(=O)[nH]ncc32)CCN1c1ccc(C(F)(F)F)cn1` [Compound 173], the negative logarithm of the IC50 (pIC50) is no less than 7.00.

As for `CC(COCCC(=O)N1CCN(c2ccc(C(F)(F)F)cn2)CC1)n1nc(C(F)(F)F)c2c(=O)[nH]ncc21` (stereo not drawn) [Compound 178], the pIC50 is no less than 7.00.

Consider `CC(COCCC(=O)N1CCN(c2ccc(C(F)(F)F)cn2)CC1)n1nc(C(F)(F)F)c2c(=O)[nH]ncc21` (stereo not drawn) [Compound 179], for which the negative-log IC50 (pIC50) is no less than 7.00. Regarding `O=C(CCOCCc1cccc2c(=O)[nH]ncc12)N1CCN(c2nc3ccc(F)cc3o2)CC1` [Compound 180], the pIC50 is no less than 7.00.

Consider `CC1(C)CN(C(=O)CCOCCn2nc(C(F)(F)F)c3c(=O)[nH]ncc32)CCN1c1ncc(C(F)(F)F)cn1` [Compound 182], for which the pIC50 is no less than 7.00. For `O=C(CCOCCn1nc(C(F)(F)F)c2c(=O)[nH]ncc21)N1CCN(c2nc3ccc(F)cc3o2)CC1` [Compound 183], the pIC50 was no less than 7.00. With `O=C(CCOCCn1c(C(F)(F)F)nc2c(=O)[nH]ncc21)N1CCN(c2ncc(C(F)(F)F)cn2)CC1` [Compound 184], the pIC50 was 6.00 to 7.00.

On to `CC(COCCC(=O)N1CCN(c2ncc(Cl)cn2)CC1)n1nc(C(F)(F)F)c2c(=O)[nH]ncc21` (stereo not drawn) [Compound 186], for which the pIC50 was no less than 7.00. On to `O=C(CCOCCn1nc(C(F)(F)F)c2c(=O)[nH]ncc21)N1CCN(c2nc3ccc(Cl)cc3o2)CC1` [Compound 191], for which the pIC50 is no less than 7.00. For `N#Cc1ccc2nc(N3CCN(C(=O)CCOCCc4cccc5c(=O)[nH]ncc45)CC3)oc2c1` [Compound 192], the pIC50 is no less than 7.00. As to `CC1(C)CN(c2ncc(C(F)(F)F)cn2)CCN1C(=O)CCOCCn1nc(C(F)(F)F)c2c(=O)[nH]ncc21` [Compound 193], the pIC50 was no less than 7.00. Next, `Cn1c(N2CCN(C(=O)CCOCCn3nc(C(F)(F)F)c4c(=O)[nH]ncc43)CC2)nc2ccccc21` [Compound 195]: no less than 7.00; `N#Cc1ccc2oc(N3CCN(C(=O)CCOCCn4nc(C(F)(F)F)c5c(=O)[nH]ncc54)CC3)nc2c1` [Compound 196]: no less than 7.00; `O=C(CCOCCc1cccc2c(=O)[nH]ncc12)N1CCC(Oc2ccccc2)CC1` [Compound 197]: 6.00 to 7.00. As to `O=C(CCOCCn1cc(C(F)F)c2c(=O)[nH]ncc21)N1CCN(c2ncc(C(F)(F)F)cn2)CC1` [Compound 198], the pIC50 is no less than 7.00. `O=C(CCOCCc1cccc2c(=O)[nH]ncc12)N1CCN(c2nc3cc(F)ccc3o2)CC1` [Compound 199]: the pIC50 is no less than 7.00. Regarding `O=C(CCOCCn1cc(C(F)F)c2c(=O)[nH]ncc21)N1CCN(c2ccc(C(F)(F)F)cn2)CC1` [Compound 200], the pIC50 is no less than 7.00. Regarding `CC(COCCn1nc(C(F)(F)F)c2c(=O)[nH]ncc21)C(=O)N1CCN(c2ncc(C(F)(F)F)cn2)CC1` (stereo not drawn) [Compound 201], the pIC50 was no less than 7.00. As to `CC(COCCn1nc(C(F)(F)F)c2c(=O)[nH]ncc21)C(=O)N1CCN(c2ncc(C(F)(F)F)cn2)CC1` (stereo not drawn) [Compound 202], the pIC50 was no less than 7.00. As for `CCn1cc(CCOCCC(=O)N2CCN(c3ncc(C(F)(F)F)cn3)CC2)c2cn[nH]c(=O)c21` [Compound 203, 1-ethyl-3-(2-(3-oxo-3-(4-(5-(trifluoromethyl)pyrimidin-2-yl)piperazin-1-yl)propoxy)ethyl)-1,6-dihydro-7H-pyrrolo[2,3-d]pyridazin-7-one], the pIC50 is no less than 7.00.

With `N#Cc1ccc(N2CCN(C(=O)c3cccc(Cc4cccc5c4CCCNC5=O)c3)CC2)nc1` [Compound 204], the negative logarithm of the IC50 (pIC50) was 6.00 to 7.00. For the molecule `O=C(CCOCCc1cccc2c(=O)[nH]ncc12)N1CCN(c2nc3ccc(Cl)cc3o2)CC1` [Compound 205], the pIC50 is no less than 7.00.

Regarding `CC(COCCc1cccc2c(=O)[nH]ncc12)C(=O)N1CCN(c2ncc(C(F)(F)F)cn2)CC1` (stereo not drawn) [Compound 206], the pIC50 is no less than 7.00. Consider `O=C(CCOCCc1cccc2c(=O)[nH]ncc12)N1CCN(c2ccc(C(F)(F)F)cc2)C(=O)C1` [Compound 207], for which the negative logarithm of the IC50 (pIC50) is 6.00 to 7.00. With `N#Cc1ccc2oc(N3CCN(C(=O)CCOCCc4cccc5c(=O)[nH]ncc45)CC3)nc2c1` [Compound 208], the pIC50 is no less than 7.00. In the case of `CCC(OCCCC(=O)N1CCN(c2ncc(C(F)(F)F)cn2)CC1)c1cccc2c(=O)[nH]ncc12` (stereo not drawn) [Compound 209], the pIC50 was no less than 7.00. For `CC(COCCC(=O)N1CCN(c2ccc(Cl)cn2)CC1)n1nc(C(F)(F)F)c2c(=O)[nH]ncc21` (stereo not drawn) [Compound 211], the pIC50 is no less than 7.00.

In the case of `CC(COCCC(=O)N1CCN(c2ccc(Cl)cn2)CC1)n1nc(C(F)(F)F)c2c(=O)[nH]ncc21` (stereo not drawn) [Compound 212], the negative-log IC50 (pIC50) is no less than 7.00. Regarding `O=C(CCOCCc1cccc2c(=O)[nH]ncc12)N1CCN(c2nc3ccccc3[nH]2)CC1` [Compound 213], the pIC50 was no less than 7.00. Take `Cn1c(N2CCN(C(=O)CCOCCc3cccc4c(=O)[nH]ncc34)CC2)nc2ccccc21` [Compound 214]: the pIC50 is no less than 7.00.

With `O=C(CCOCCn1nc(C(F)(F)F)c2c(=O)[nH]ncc21)N1CCN(c2nc3cc(F)ccc3o2)CC1` [Compound 215, 1-(2-(3-(4-(5-fluorobenzo[d]oxazol-2-yl)piperazin-1-yl)-3-oxopropoxy)ethyl)-3-(trifluoromethyl)-1,5-dihydro-4H-pyrazolo[3,4-d]pyridazin-4-one], the pIC50 was no less than 7.00. As for `O=C1CCc2cnc(N3CCN(C(=O)CCOCCc4cccc5c(=O)[nH]ncc45)CC3)nc2N1` [Compound 216], the pIC50 is no less than 7.00. Turning to `Cc1ccc(CCOCCC(=O)N2CCN(c3ncc(C(F)(F)F)cn3)CC2)c2cn[nH]c(=O)c12` [Compound 217], the pIC50 is no less than 7.00. The result for `N#Cc1ccc2nc(N3CCN(C(=O)CCOCCn4nc(C(F)(F)F)c5c(=O)[nH]ncc54)CC3)oc2c1` [Compound 218] reads no less than 7.00. On to `O=C(CCOCCc1cccc2c(=O)[nH]ncc12)N1CCC(c2cc(C(F)(F)F)on2)CC1` [Compound 219], for which the pIC50 is 6.00 to 7.00. Turning to `O=C(CCOCCc1cccc2c(=O)[nH]ncc12)N1CCN(c2ncc3c(n2)NCCC3)CC1` [Compound 220], the pIC50 is no less than 7.00.

Values taken from US20240217968A1, “PHARMACEUTICAL COMPOUND” (DUKE STREET BIO LIMITED, priority 2021, published 2024).
